Results from patent US20130217678A1, “PHARMACEUTICAL AGENT COMPRISING QUINOLONE COMPOUND” (OTSUKA PHARMACEUTICAL CO., LTD., priority 2008, published 2013).

Experiments:
[1] = test system: dopamine transporter (DAT); test: Dopaminergic neuronal protective activity in MPTP-treated C57BL/6 mouse: DAT protein level in striatum (Western blot); assay type: in vivo; conditions: 10 mg/kg oral at 30 min, 24 h, 48 h after MPTP s.c.; striatum 72 h after MPTP; mouse without MPTP = 100%
Experimental: (§1) Using a mouse having MPTP-induced dopaminergic neurons (Chan P. et al., J Neurochem, 57, 348-351 (1991)), the dopaminergic neuronal protective activity was evaluated based on the protein levels of tyrosine hydroxylase (TH) and dopamine transporter (DAT), which are dopaminergic neuronal marker proteins, and a dopamine content in the brain corpus striatum region after the compound administration (Mori A. et al., Neurosci Res, 51, 265-274 (2005)).
(§2) A male C57BL/6 mouse (provided by Japan Charles River Inc., 10 to 12 weeks) was used as a test animal. MPTP was dissolved in a physiological salt solution so that the concentration was 4 mg/ml, and then administered to the mouse subcutaneously in a volume of 10 ml/kg. A test compound was suspended in a 5% gum arabic/physiological salt solution (w/v) so that the concentration was 1 mg/ml. Each of the test compounds or solvents thereof was orally administered to the mouse after 30 minutes, 24 hours, and 48 hours of the MPTP administration. The mouse was decapitated after 72 hours of the MPTP administration, the brain was removed, and each side of the striatum was dissected.
(§3) The left striatum was used as a sample to detect the protein level by Western blot analysis. Each tissue was homogenized in a HEPES buffer sucrose solution (0.32 M sucrose, 4 μg/ml pepstatin, 5 μg/ml aprotinin, 20 μg/ml trypsin inhibitor, 4 μg/ml leupeptin, 0.2 mM phenylmethanesulfonyl fluoride, 2 mM ethylenediaminetetraacetic acid (EDTA), 2 mM ethylene glycol bis(β aminoethyl ether) tetraacetic acid, 20 mM HEPES, pH 7.2), and assayed for protein using a bicinchoninic acid kit for protein assay (provided by Pierce Corporation). Each homogenized sample, having an equal amount of protein that had been dissolved in a Laemmli sample buffer solution, was subjected to electrophoresis through a sodium dodecyl sulfate polyacrylamide gel. […] Subsequently, a horseradish peroxidase-labeled secondary antibody (a product of Amersham K.K.) for each primary antibody was fixed, and the chemiluminescence associated with enzyme activity of peroxidase was detected using a X-ray film. The density of the protein band on the film was analyzed using a densitometer (a product of Bio-rad Laboratories Inc.) to obtain the TH value relative to Na^+/K^+-ATPase and the DAT value relative to actin.
(§4) In both analyses, the value of the sample derived from the MPTP-induced mouse in which only the test compound or the solvent was administered was expressed relative to the value of the sample derived from the mouse without MPTP treatment (100%). Values were analyzed statistically using a nonclinical statistical analysis system, and values of significance probability less than 0.05 were defined as significant.

[2] = test system: human neuroblastoma cell lines SH-SY5Y treated with 1-methyl-4-phenylpyridinium (MPP+); test: Improvement of mitochondrial function (Alamar Blue mitochondrial oxidation reduction activity) in MPP+-treated SH-SY5Y cells; assay type: cell-based; conditions: 1.5 mM MPP+, relative to cells in DMSO alone = 100%, read-out: Fluorescence Intensity (%); for activity at 0.01 µg/mL: compound 0.01 μg/ml; for activity at 0.03 µg/mL: compound 0.03 μg/ml; for activity at 0.1 µg/mL: compound 0.1 μg/ml; for activity at 0.3 µg/mL: compound 0.3 μg/ml; for activity at 1 µg/mL: compound 1 μg/ml
Experimental: In human neuroblastoma cell lines SH-SY5Y in which mitochondrial function was damaged by MPP^+ treatment (Bollimuntha S. et al., J Biol Chem, 280, 2132-2140 (2005) and Shang T. et al., J Biol Chem, 280, 34644-34653 (2005)), the improvement of mitochondrial function was evaluated on the basis of the measurement value for mitochondrial oxidation reduction activity using Alamar Blue fluorescent dye after the compound addition (Nakai M. et al, Exp Neurol, 179, 103-110 (2003)).
The human neuroblastoma cell lines SH-SY5Y were cultured in Dulbecco's Modified Eagle's Medium containing 10% fetal bovine serum (DMEM containing 50 units/ml penicillin and 50 μg/ml streptomycin as antibiotics) at 37° C. in the presence of 5% carbon dioxide. Cells were scattered on a poly-D-lysine-coated 96-well black plate at a concentration of 3−6×10^4 cells/cm^2 (medium amount: 100 μl/well) and cultured in the medium for two days. Further, the medium was changed to DMEM containing a 1% N2 supplement (N2-DMEM) or to a medium (100 μl/well) in which 1.5 mM MPP^+ was dissolved. The cells were cultured therein for 39 to 48 hours, and then subjected to a mitochondrial oxidation reduction activity measurement system. A sample compound that had been previously dissolved in dimethyl sulfoxide (DMSO) was diluted with N2-DMEM and added in a volume of 10 μl/well 24 hours before the activity measurement (final compound concentration: 0.01 to 1 μg/ml).
After removal of the medium by suction, a balanced salt solution containing 10% Alamar Blue (154 mM sodium chloride, 5.6 mM potassium chloride, 2.3 mM calcium chloride, 1.0 mM magnesium chloride, 3.6 mM sodium hydrogen carbonate, 5 mM glucose, 5 mM HEPES, pH 7.2) was added in a volume of 100 μl/well, and reacted in an incubator at 37° C. for 1 hour. The fluorescent intensity was detected using a fluorescence detector (a product of Hamamatsu Photonics K.K., excitation wavelength: 530 nm, measurement wavelength: 580 nm) to thereby measure the mitochondrial oxidation reduction activity.
The fluorescent intensity of the well of the cells cultured in a medium containing MPP^+ and each of the sample compounds was relatively evaluated based on the 100% fluorescent intensity of the well of the cells cultured in a medium containing DMSO alone (final concentration: 0.1%).

[3] = test system: tyrosine hydroxylase (TH); test: Dopaminergic neuronal protective activity in MPTP-treated C57BL/6 mouse: TH protein level in striatum (Western blot); assay type: in vivo; conditions: 10 mg/kg oral at 30 min, 24 h, 48 h after MPTP s.c.; striatum 72 h after MPTP; mouse without MPTP = 100%
Experimental: as §1, §2, §3, §4

[4] = test system: dopamine content in the brain corpus striatum region; test: Dopaminergic neuronal protective activity in MPTP-treated C57BL/6 mouse: dopamine content in striatum (HPLC); assay type: in vivo; conditions: 10 mg/kg oral at 30 min, 24 h, 48 h after MPTP s.c.; striatum 72 h after MPTP; mouse without MPTP = 100%
Experimental: as §1, §2
The right striatum, the tissue weight of which was measured immediately after dissection, was used as an analysis sample for determining the dopamine content. Each tissue was homogenized in a 0.1 N perchloric acid solution containing isoproterenol as an internal standard substance of the measurement, using an ultrasonic homogenizer while being cooled with ice. The supernatant obtained from 20,000 g of homogenate that had been centrifuged at 4° C. for 15 minutes was subjected to a high-performance liquid chromatography with a reversed phase column (a product of Eicom Corporation). A mobile phase 15% methanol 0.1 M citric acid/0.1 M sodium acetate buffer solution (containing 190 mg/L 1-sodium octane sulfonate and 5 mg/L EDTA, pH 3.5) was flowed at a rate of 0.5 ml/min, and the dopamine peak of each sample was detected using an electrochemical detector (applied voltage: +750 mV vs. Ag/AgCl, a product of Eicom Corporation). With reference to the identified dopamine peak, the dopamine content per tissue weight was calculated in each sample using analysis software (a product of Gilson Inc.).
as §4

Structure (SMILES) | melting point [°C] | Protein level of dopamine transporter (DAT) in the brain corpus striatum region (% of control) [1] | activity at 0.01 µg/mL [2] [%] | activity at 0.03 µg/mL [2] [%] | activity at 0.1 µg/mL [2] [%] | activity at 0.3 µg/mL [2] [%] | activity at 1 µg/mL [2] [%] | Protein level of tyrosine hydroxylase (TH) in the brain corpus striatum region (% of control) [3] | Dopamine content in the brain corpus striatum region (% of control) [4]
CCCOc1ccc(C)c2c(=O)c(-c3ccc(OC)cc3)c[nH]c12 [Example 1, 3-(4-Methoxyphenyl)-5-methyl-8-propoxy-1H-quinolin-4-one] | 192 to 193 | 84.7 % of control | 58 | 68 | 73 | 66 | 46 | 86.2 % of control | 39.6 % of control
CCCOc1ccc(C2CC2)c2c(=O)c(-c3ccc(OC)cc3)c[nH]c12 [Example 65, 5-Cyclopropyl-3-(4-methoxyphenyl)-8-propoxy-1H-quinolin-4-one] | 168 to 170 | 73.0 % of control | 59 | 73 | 78 | 66 | 20 | 65.2 % of control | 31.2 % of control
COc1ccc(-c2c[nH]c3c(-n4ccnc4)ccc(C)c3c2=O)cc1 [Example 67, 8-Imidazol-1-yl-3-(4-methoxyphenyl)-5-methyl-1H-quinolin-4-one] | 196 to 198 | 50.9 % of control | 45 | 54 | 61 | 57 | 42 | 77.9 % of control | 26.7 % of control
CCCSc1ccc(C)c2c(=O)c(-c3ccc(OC)cc3)c[nH]c12 [Example 70, 3-(4-Methoxyphenyl)-5-methyl-8-propylsulfanyl-1H-quinolin-4-one] | 132 to 135 | 64.1 % of control | 48 | 56 | 61 | 50 | 22 | 90.2 % of control | 26.5 % of control
